Entries after “also recorded” stand apart in the source; their conditions may differ.
Experiments:
C57/BL6J male mouse [1] = assay: MTX induced chemo brain model: puzzle box test; format: in vivo; details: MTX treatment
Experimental: Animals were placed in a testing arena containing a lighted (55 cm×28 cm) and a dark (15 cm×28 cm) compartment with a connecting tunnel (4 cm×4 cm×2.5 cm), facing the farthest wall from the dark compartment. 3 trials were performed for 3 days. 1 introductory period without any obstacles blocking the tunnel and 2 ‘easy task’ in which animals have to pass a corridor (4 cm×4 cm×12 cm). On day 2, 1 ‘easy task’ and 2 ‘intermediate task’ in which the corridor is blocked with sawdust and the animals have to dig through to reach the dark chamber were performed. On day 3, 1 ‘intermediate task’ and 2 ‘hard task’ where the tunnel was plugged with a tissue were performed. Time of the first entry to the dark chamber was recorded for every trials.
(§1) OFT, MWM behavior was tracked with a behavior tracking software (EthoVision XT, Nodulus). NOR and puzzle box behavior was scored by manual counting. Zeiss LSM 710 and Zeiss LSM 880 confocal microscope with Zen software was used to capture fluorescence images. A 3D image analysis software (IMARIS, Bitplane) was used to score Iba1 and GFAP positive voxels, and the area covered by MBP, ventricle size and cell number counting was scored with ImageJ software. Researcher was blinded for the experimental group during data analysis.

C57/BL6J male mouse [2] = assay: MTX induced chemo brain model: novel object recognition (NOR); format: in vivo; details: MTX without GENUS
Experimental: Animals were habituated in an OFT box for 10 min, 3 consecutive days. On the 4th day, two identical wooden blocks (Premium wooden building blocks set, Cubbie Lee) were placed in the chamber, and animals were allowed to explore the objects for 5 min, then the animals were returned to their home cage for 5 min. In the test phase, one of the wooden block is switched to a novel wooden block with a different shape, and the time spent exploring the familiar and new object was measured for 10 min. Discrimination ratio was calculated as time spent to explore the new object divided by the sum of time spent to explore both old and new object.
as §1

C57/BL6J male mouse [3] = assay: MTX induced chemo brain model: open field test (OFT); format: in vivo; details: MTX vs PBS
Experimental: Animals were placed in the center of 45×45 cm×40 cm (W×L×H) white acrylic box and their movement were tracked with a behavior tracking software (EthoVision XT, nodulus) for 10 min. 22.5 cm×22.5 cm area in the center of the box was marked as ‘center area’.
as §1

C57/BL6J male mouse [4] = assay: MTX induced chemo brain model: immunohistochemistry of brain slices; format: in vivo; details: MTX NS
Experimental: 30˜40 μm thick vibratome sectioned brain slices were washed in PBS, then incubated in a blocking solution (3% normal donkey serum (Millipore Sigma, S30-M) and 0.3% Triton X-100 (Sigma-Aldrich, T8787-100ML) in PBS) for 2 hrs. Then, slices were treated with a blocking solution containing α-Iba1 (1:500, Abcam, ab178846), α-GFAP (1:1000, Novus Biologicals, NBP1-05198), α-MBP (1:500, Millipore, AB9348), α-yH2AX (1:500, EMD Millipore, 05-636), α-Iba1 (1:500, SYSY, 234004), α-Olig2 (1:200, Abcam, ab109186), α-Pdgfra (1:100, Abcam, ab90967) and α-Dcx (1:500, Cell signaling technology, 4604S) in a 4° C.-10° C. controlled cold room for 2 overnight. […]
as §1, with “Researcher was blinded for the experimental group during data analysis.” left out

C57/BL6J male mouse [5] = assay: MTX induced chemo brain model: Morris water maze (MWM) test; format: in vivo
Experimental: A circular cylinder with 122 cm diameter was filled with tap water (22° C.-24° C.) and a white paint was added to make the water opaque. The area was divided into 4 equal quardrants and a 10 cm diameter platform was placed in the center of the target quardrant (TQ), the platform being 1 inch lower than the water level. On the first day of training, animals were placed on the platform for 30 seconds, and then retrieved from the water (priming). After 1 minute of priming, animals were placed into the chamber facing the chamber wall. Time to reach the platform was measured when the animal was sitting on the platform for >1s. For 5 consecutive days, animals performed two trials, spaced 1 min. After 5 days of training, the platform was removed from the chamber, and the animals were placed in the center of the chamber. For 1 min duration, time spent in TQ were measured Novel Object Recognition (NOR)
as §1

C57/BL6J male mouse [6] = assay: MTX induced chemo brain model: survival rate and body weight; details: 100 mg/kg MTX i.p.
Experimental: P21 C57/BL6J male mouse received i.p. injection of either 100 mg/kg MTX or volume-matched PBS on P21, P28, P35 (i.e., 21 days after birth/21 days old, 28 days old, 35 days old) (FIG. 1A). Stim (S) group received 1 hr of 40 Hz audio+visual sensory stimulation immediately after the first injection, and then received 1 hr stimulation every day after that day's injection until the day before they were sacrificed. No stim (NS) group stayed under a dim light for 1 hr immediately after the first injection, and then stayed under a dim light for 1 hr every day until the day before they were sacrificed. Every animal was single-caged in a caged covered with a black-plastic bag on every wall but one side for the duration of 1 hr stim/sham period and then group housed with their littermates.
Another chemotherapeutic agent, methotrexate (MTX)-induced chemo brain animals were tested.

## CN(Cc1cnc2nc(N)nc(N)c2n1)c1ccc(C(=O)N[C@@H](CCC(=O)O)C(=O)O)cc1 [MTX, methotrexate]
C57/BL6J male mouse [1]
  puzzle box test performance: cognitive impairment
C57/BL6J male mouse [2]
  NOR: time exploring novel and familiar object: spent comparable time exploring noble and familiar object
C57/BL6J male mouse [3]
  locomotion in OFT: neither GENUS nor methotrexate (MTX) treatment affected locomotion
  time spent in center area during OFT: GENUS but not MTX significantly increased time spent in center area
C57/BL6J male mouse [4]
  Iba1 signal in corpus callosum: dramatically increased; also recorded: significantly higher
C57/BL6J male mouse [5]; PBS NS, MTX NS, PBS S, MTX S
  MWM performance: swimming speed, spatial learning and memory: comparable performance in swimming speed, spatial learning and memory
C57/BL6J male mouse [5]; mouse, in vivo
  MWM learning curve: neither MTX nor GENUS altered learning curve
  MWM swimming speed: neither MTX nor GENUS altered swimming speed
C57/BL6J male mouse [6]; 1 week after the first administration
  survival rate: ~60%
C57/BL6J male mouse [6]; within 1 week after the first MTX injection
  lethality: 40%

Source: patent publication US20230173295A1, “Systems, Devices, and Methods for Gamma Entrainment using Sensory Stimuli to Alleviate Cognitive Deficits and/or Neuroinflammation Induced by Chemotherapy Agents” (Massachusetts Institute of Technology, priority 2020, published 2023)
